Where no end group is shown, it is not given here.
B1: Hybrid-4 hPTHrP-(1-21)/[Y34]hPTH-(22-34)NH2 (peptide)
peptide: AVSEHQLLHDKGKSIQDLRRREWLRKKLQDVHNY-NH2
B2: Hybrid-3 hPTHrP-(1-23)/[Y34]hPTH-(24-34)NH2 (peptide)
peptide: AVSEHQLLHDKGKSIQDLRRRFFLRKKLQDVHNY-NH2
notes: Synthetic PTH/PTHrP hybrid ligand; also called PTHrP-(1-23)/PTH-(24-34)
B3: [Tyr^34]hPTH-(1-34)NH2 (peptide)
peptide: SVSEIQLMHNLGKHLNSMERVEWLRKKLQDVHNY-NH2
B4: [H5, Y34]hPTH-(1-34)NH2 (peptide)
peptide: SVSEHQLMHNLGKHLNSMERVEWLRKKLQDVHNY-NH2
B5: [H5, F23, Y34]hPTH-(1-34)NH2 (peptide)
peptide: SVSEHQLMHNLGKHLNSMERVEFLRKKLQDVHNY-NH2
B6: Hybrid-1 hPTHrP-(1-14)/[Y34]hPTH-(15-34)NH2 (peptide)
peptide: AVSEHQLLHDKGKSLNSMERVEWLRKKLQDVHNY-NH2
B7: [W23, Y36]hPTHrP-(15-36)NH2 (peptide)
peptide: IQDLRRRFWLHHLIAEIHTAEY-NH2
B8: [E22, W23, Y36]hPTHrP-(15-36)NH2 (peptide)
peptide: IQDLRRREWLHHLIAEIHTAEY-NH2
B9: [Y36]hPTHrP-(15-36)NH2 (peptide)
peptide: IQDLRRRFFLHHLIAEIHTAEY-NH2
B10: [I5, Y36]hPTHrP-(1-36)NH2 (peptide)
peptide: AVSEIQLLHDKGKSIQDLRRRFFLHHLIAEIHTAEY-NH2

How the values were obtained:
PTH/PTHrP receptor [1] = molecular target: T1, PTH/PTHrP receptor (Homo sapiens, UniProt Q03431); experiment: Ligand-induced intracellular cAMP accumulation, COS-7 cells expressing human PTH/PTHrP receptor; type: cell-based; conditions: for cAMP accumulation Maximum, PTH/PTHrP receptor: highest level of cAMP attained, basal 4.6 ± 0.2 not subtracted, 1h at room temperature; for cAMP agonist activity in words, PTH/PTHrP receptor: COS-7 cells
T1 construct: expressed in transfected cells; host or cells: COS-7 cells, transient transfection, vector pcDNA-1
T1 sequence (Q03431 27-593): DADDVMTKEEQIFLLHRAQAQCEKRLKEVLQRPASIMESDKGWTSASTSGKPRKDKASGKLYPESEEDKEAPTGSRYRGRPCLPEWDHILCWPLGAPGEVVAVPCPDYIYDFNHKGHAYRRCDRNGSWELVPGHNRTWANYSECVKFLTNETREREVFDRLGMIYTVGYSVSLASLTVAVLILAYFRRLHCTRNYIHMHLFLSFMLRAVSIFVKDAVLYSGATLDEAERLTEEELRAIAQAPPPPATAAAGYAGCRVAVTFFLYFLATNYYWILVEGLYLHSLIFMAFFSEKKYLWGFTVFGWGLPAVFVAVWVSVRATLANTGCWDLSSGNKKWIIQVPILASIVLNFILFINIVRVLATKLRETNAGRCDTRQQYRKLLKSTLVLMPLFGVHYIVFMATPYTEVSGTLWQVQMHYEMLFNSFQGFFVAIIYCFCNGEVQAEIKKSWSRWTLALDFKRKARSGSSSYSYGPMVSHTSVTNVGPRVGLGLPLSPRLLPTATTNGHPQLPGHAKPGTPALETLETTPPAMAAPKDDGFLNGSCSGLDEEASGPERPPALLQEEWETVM
Description: (§1) The cDNAs encoding the human PTH/PTHrP receptor (Schipani, E. et al., Endocrinology 132:2157-2165 (1993)) and the human PTH-2 receptor (Usdin, T. et al., J. Biol. Chem. 270:15455-15458 (1995)) were carried on the expression vectors pcDNA-1 and pcDNAI/Amp (InVitrogen, San Diego, Calif.), respectively. COS-7 cells were cultured and transfected as described previously (Lee, C. et al., Mol. Endocrinol. 9:1269-1278 (1995)). Cells were transfected in 24-well plates using plasmid DNA (200 ng/well) purified by cesium chloride/ethidium bromide gradient centrifugation. Ligand binding and cAMP accumulation assays were performed three days after transfection, by which time the cell density reached 500,000±100,000 cells/well.
(§2) Transfected COS-7 cells were rinsed with […] of binding buffer. 200 μl of IBMX buffer (DMEM containing 2 mM IBMX, 1 mg/ml bovine serum albumin, 35 mM Hepes-NaOH, pH 7.4) and […] of binding buffer or binding buffer containing various amounts of a PTH or PTHrP analog were then added. The plates were incubated for 60 minutes at room temperature. The buffer was then withdrawn and the cells lysed by placing the plates on powdered dry ice and adding 0.5 ml of 50 mM HCl. The acid lysate was diluted 1/30 in dH2O, and an aliquot (5-50 μl) analyzed for cAMP content by radioimmunoassay. […] The cells were then incubated for 30 minutes at room temperature, and the resulting intracellular cAMP was measured by RIA. Data were analyzed using the AssayZap software (Elsevier Science Publishers BV, Cambridge, United Kingdom).

PTH-2 receptor [2] = molecular target: T2, PTH-2 receptor (Homo sapiens, UniProt P49190); experiment: Ligand-induced intracellular cAMP accumulation, COS-7 cells expressing human PTH-2 receptor; type: cell-based; conditions: for cAMP accumulation Maximum, PTH-2 receptor: highest level of cAMP attained, basal 5.4 ± 0.3 not subtracted, 1h at room temperature; for cAMP agonist activity in words, PTH-2 receptor: COS-7 cells
T2 construct: expressed in transfected cells; host or cells: COS-7 cells, transient transfection, vector pcDNAI/Amp
Description: as §1, §2

PTH-2 receptor [3] = molecular target: T2, PTH-2 receptor; experiment: Competition radioligand binding, COS-7 cells transfected with human PTH-2 receptor; conditions: for Binding in words, PTH-2 receptor: competition with radioligand
Description: as §1
(§3) Binding reactions were performed as described previously. Id. Each well (final volume: […]) contained 26 fmole of ^125I-[Nle^8,21,Tyr^34]rPTH(1-34)NH2 (100,000 CPM) and various amounts (0.4-300 pmole) of an unlabeled competitor ligand, both diluted in binding buffer (50 mM Tris-HCl, pH 7.7, 100 mM NaCl, 5 mM KCl, 2 mM CaCl, 5% heat-inactivated horse serum, 0.5% heat-inactivated fetal bovine serum). Incubations were at room temperature for 2 hours, except for experiments involving Scatchard analysis, which were performed at 4° C. for 6 hours. At the end of the binding reaction, the cells were rinsed 3 times with 0.5 ml of binding buffer, lysed with 0.5 ml of 5M NaOH, and the entire lysate was counted. Nonspecific binding of tracer (NSB), determined in wells containing 1 μM of [NleTyr^8,21,Tyr^34]rPTH-(1-34)NH2, was ˜1% of total counts added. Maximum specific binding (B0) was calculated as the total radioactivity bound to cells in the absence of unlabeled PTH ligand, minus NSB. […] For Scatchard analyses, homologous competition binding studies were performed that used ^125I-[-NleTyr^8,21,Tyr^34]rPTH-(1-34)NH2 (26 fmole/well) and varying amounts (1.2-300 pmol) of the same unlabeled ligand. Estimates of the number of receptors/cell derived from these studies assumed a single class of binding sites and a transfection efficiency of 20% (Abou-Samra, A. B. et al., Proc. Natl. Acad. Sci (USA) 89:2732-2736 (1992)).

PTH/PTHrP receptor [4] = molecular target: T1, PTH/PTHrP receptor; experiment: Competition radioligand binding, COS-7 cells transfected with human PTH/PTHrP receptor; conditions: for Binding affinity, fold weaker than PTH-(1-34): PTH/PTHrP receptor; for Binding in words, PTH/PTHrP receptor: competition with radioligand
Description: as §1, §3

human PTH-2 receptor = human PTH-2 receptor (human, UniProt P49190 25-550); experiment: cell-based or functional assay
human PTH/PTHrP receptor = molecular target: T3, human PTH/PTHrP receptor (human, UniProt Q03431 27-593); experiment: radioligand competition (tracer 125I-[Nle8,21,Tyr34]rPTH-(1-34)NH2) on transfected COS-7 cells, RT 2 h
T3 construct: whole, on cells; Transiently expressed on COS-7 cells
T3 sequence (looked up): T1 sequence (Q03431 27-593)
Description: Assays were performed for 2 hours at room temperature. Data are the mean (± s.e.m.) of IC$50$ values obtained from the number of experiments indicated (n).
Binding reactions were performed as described previously. Id. […] Incubations were at room temperature for 2 hours, except for experiments involving Scatchard analysis, which were performed at 4° C. for 6 hours. At the end of the binding reaction, the cells were rinsed 3 times with 0.5 ml of binding buffer, lysed with 0.5 ml of 5M NaOH, and the entire lysate was counted. […] Estimates of the number of receptors/cell derived from these studies assumed a single class of binding sites and a transfection efficiency of 20% (Abou-Samra, A. B. et al., *Proc. Natl. Acad. Sci* (*USA*) 89:2732–2736 (1992)).

[5] = COS-7 cells, radioligand 125I-[Nle8,21,Y34]rPTH-(1-34)NH2, 2 hours at room temperature, mean ± s.e.m.

T2 sequence (P49190 25-550): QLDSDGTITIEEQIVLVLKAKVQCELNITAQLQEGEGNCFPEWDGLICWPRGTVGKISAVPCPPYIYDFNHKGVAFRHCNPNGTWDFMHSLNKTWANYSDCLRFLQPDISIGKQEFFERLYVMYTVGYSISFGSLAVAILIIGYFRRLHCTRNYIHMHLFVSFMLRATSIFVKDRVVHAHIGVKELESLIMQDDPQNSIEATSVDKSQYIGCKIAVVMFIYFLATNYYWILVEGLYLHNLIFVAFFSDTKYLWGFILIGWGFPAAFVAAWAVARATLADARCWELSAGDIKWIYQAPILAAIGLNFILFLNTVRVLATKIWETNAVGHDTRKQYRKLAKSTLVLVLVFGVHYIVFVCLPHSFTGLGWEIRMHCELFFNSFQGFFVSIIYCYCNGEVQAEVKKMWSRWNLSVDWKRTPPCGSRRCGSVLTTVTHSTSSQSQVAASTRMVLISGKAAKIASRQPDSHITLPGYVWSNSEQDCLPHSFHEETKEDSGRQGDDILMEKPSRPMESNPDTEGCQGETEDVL
Chain of human PTH-2 receptor (P49190 25-550): as above

Molecule	cAMP accumulation Maximum, PTH/PTHrP receptor (PTH/PTHrP receptor [1]) [pmoles/well]	cAMP accumulation Maximum, PTH-2 receptor (PTH-2 receptor [2]) [pmoles/well]	cAMP accumulation EC50 (human PTH-2 receptor) [nM]	cAMP accumulation Maximum (human PTH-2 receptor) [pmoles/well]	further results
hPTHrP-(1-21)/[Y34]hPTH-(22-34)NH2 [Hybrid-4]	107 ± 17	6.7 ± 0.6	–	–	–
[Tyr^36]hPTHrP-(1-36)NH2 [[Y36]hPTHrP-(1-36)NH2, reference compound]	–	11 ± 1	–	–	cAMP agonist activity in words, PTH/PTHrP receptor (PTH/PTHrP receptor [1]): full and potent agonists; cAMP agonist activity in words, PTH-2 receptor (PTH-2 receptor [2]): nearly inactive; Binding potency, fold weaker than PTH-(1-34) (PTH-2 receptor [3]; PTH-2 receptor): more than 100 fold; Binding in words, PTH-2 receptor (PTH-2 receptor [3]; COS-7 cells): bound poorly; Binding affinity, fold weaker than PTH-(1-34) (PTH/PTHrP receptor [4]): six-fold weaker binding; Binding in words, PTH/PTHrP receptor (PTH/PTHrP receptor [4]; COS-7 cells): fully inhibited binding of the radioligand
[Y36]hPTHrP-(15-36)NH2	–	–	–	–	Binding in words, PTH-2 receptor (PTH-2 receptor [3]; COS-7 cells): competed weakly
hPTHrP-(1-23)/[Y34]hPTH-(24-34)NH2 [Hybrid 3]	95 ± 9	11 ± 1	–	–	–
[H5, Y34]hPTH-(1-34)NH2	116 ± 19	10 ± 1	–	–	cAMP agonist activity in words, PTH/PTHrP receptor (PTH/PTHrP receptor [1]): efficiently stimulated cAMP formation; Binding in words, PTH/PTHrP receptor (PTH/PTHrP receptor [4]; COS-7 cells): competed very poorly
hPTH-(1-14)/[Y34]hPTHrP-(15-34)NH2 [Hybrid-2]	123 ± 28	–	–	–	–
hpTHrP-(1-18)/[Y34]hpTH-(19-34)NH2 [Hybrid-5]	133 ± 14	6.2 ± 0.4	–	–	–
hpTHrP-(1-14)/[Y34]hPTH-(15-34)NH2 [Hybrid-1]	140 ± 17	5.3 ± 0.6	–	–	cAMP agonist activity in words, PTH-2 receptor (PTH-2 receptor [2]): weak activity
LNSMERVEFLRKKLQDVHNY-NH2 [[F23, Y34]hPTH-(15-34)NH2]	–	–	–	–	IC50 (PTH-2 receptor [3]; [5]): > 10000 nM; IC50 (PTH/PTHrP receptor [4]; [5]): > 10000 nM
[F23, Y34]hPTH-(1-34)NH2	104 ± 16	50 ± 8	–	–	cAMP agonist activity in words, PTH-2 receptor (PTH-2 receptor [2]): nearly a full agonist; Reduction in binding potency compared to unsubstituted PTH-(1-34) (PTH-2 receptor [3]; PTH-2 receptor): 28 fold; Binding affinity, fold weaker than PTH-(1-34) (PTH/PTHrP receptor [4]): 2-3 fold
[Ile^5, Trp^23]PTHrP-(1-36) [[15, W23, Y36]hPTHrP-(1-36)NH2]	109 ± 10	65 ± 7	–	–	cAMP agonist activity in words, PTH-2 receptor (PTH-2 receptor [2]): as potent and efficacious as PTH-(1-34)
[H5, F23, Y34]hPTH-(1-34)NH2	110 ± 19	7.1 ± 0.9	–	–	–
[Ile^5]PTHrP-(1-36) [[15, Y36]hPTHrP-(1-36)NH2]	–	80 ± 5	–	–	cAMP agonist activity in words, PTH-2 receptor (PTH-2 receptor [2]): full agonist; cAMP EC50, fold higher than that of PTH-(1-34) (PTH-2 receptor [2]; PTH-2 receptor): 12 fold
B1	–	–	> 1000	6.7	–
B2	–	–	> 1000	11	IC50 (human PTH/PTHrP receptor): 1000 nM
B3	–	–	0.6	81	–
B4	–	–	> 1000	10	–
B5	–	–	> 1000	7.1	–
B6	–	–	> 1000	5.3	–
B7	–	–	–	–	IC50 (human PTH/PTHrP receptor): > 10000 nM
B8	–	–	–	–	IC50 (human PTH/PTHrP receptor): > 10000 nM
B9	–	–	–	–	IC50 (human PTH/PTHrP receptor): > 10000 nM
B10	–	–	7	80	–

Source: patent publication US6362163B1, “Parathyroid hormone-related peptide analogs” (The General Hospital Corporation, priority 1996, dated 2002)
